Where “and” joins values, the source holds several entries; their conditions need not be identical. Equal values may be shown once.
Columns and labels:
Mäuse (ChbI: NMRI) = experiment: Hypoxia tolerance: survival of mice in a closed chamber (96,5 % N2, 3,5 % O2); type: in vivo; settings: given 24 h, 16 h and 30 min before test, 10 mice per group
Excerpt: 1. HYPOXIE-TOLERANZ, d.h. bei der Prüfung der überlebensfähigkeit von Tieren in einer geschlossenen Kammer.
Eine aus Plexiglas hergestellte, durchsichtige, mit einem Deckel verschließbare Kammer (28 cm x 40 cm x 20 cm; Gesamtvolumen 22,4 1) ist in 2 Hälften geteilt, in die je 10 männliche oder weibliche Mäuse (ChbI: NMRI; 20-25 g Körpergewicht) gesetzt werden. Die Kammer wird mit einem Gasgemisch, bestehend aus 96,5 % N2 und 3,5 % 02 durchströmt; das Strömungsvolumen beträgt 12 1/min.
Eine der beiden Gruppen erhält Prüfsubstanzen, die andere das Vehikel (0,5 % Tylose), die 24 h, 16 h und 30 min vor dem Test oral appliziert werden. Etwa 6-7 min nach Beginn der Durchströmung der Kammer sterben die ersten Tiere. Das Experiment wird beendet, wenn in der Kontrollgruppe nur noch 2-3 Tiere Zeichen von Leben zeigen.
Ohne die Tiere zu berühren, wird 15 min gewartet und dann die Zahl der überlebenden Tiere in den beiden Hälften der Kammern endgültig festgestellt. Die statistische Signifikanz der Differenz der überlebenden Tiere in beiden Gruppen kann mit dem "Exakten Test von Fisher für 2 x 2 Feldertafeln" festgestellt werden.

Mäuse (ChbI:NMRI) = experiment: Scopolamine test: passive avoidance in mice; type: in vivo; settings: per os, scopolamine hydrobromide 0,6 mg/kg s.c., test 1 h after dosing
Excerpt: Durch den cholinerg-muskarinen Antagonisten Scopolamin wird bei Mensch und Tier eine vorübergehende Störung des übergangs von Inhalten des Kurzzeitgedächtnisses in das Langzeitgedächtnis hervorgerufen. Die auch klinisch bei gesunden Probanden durch Scopolamin auslösbaren, mnestischen Störungen sind in ihrer Ausprägung den psychopathologischen Veränderungen bei Patienten mit organischem Hirnsyndrom ähnlich (Drachman & Leavitt, 1974).
Der Scopolamin-Test wird an Gruppen von jeweils 10 männlichen, nicht nüchternen, naiven Mäusen (ChbI:NMRI: Körpergewicht 35 g) mit Hilfe einer passiven Vermeidereaktion durchgeführt. Das Testgerät besteht aus einer Skinner Box (30 cm x 26 cm x 29 cm) mit einem elektrifizierbaren Gitterboden und einer Plastikplattform (5 cm x 5 cm) an einer Seitenwand. Die Tiere werden einzeln in die Skinner Box gesetzt. Nach einer Orientierungsperiode von 30 sec werden kurze, unterbrochene Stromstöße von ca. 0,8 mA so oft an den Gitterboden der Box gelegt, bis das Tier gelernt hat, daß das Aufsuchen und Verweilen auf der Plastikplattform vor dem Stromstoß Sicherheit gewährt. Tiere, welche dies innerhalb von 120 sec nicht lernen, werden nicht weiter verwendet. Die anderen Mäuse werden unmittelbar nach Erlernen der passiven Vermeidereaktion in drei Gruppen (10 Tiere pro Gruppe) eingeteilt. Eine Gruppe erhält Scopolaminhydrobromid (0,6 mg/kg s.c.) und oral Vehikel (0,5 % Tylose); die zweite Gruppe Scopolaminhydrobromid sowie die zu testende Substanz per os in 0,5 % Tylose und die dritte Gruppe lediglich 0,5 % Tylose p.o.. Eine Stunde nach Applikation wird jedes Tier einzeln auf die Plattform gesetzt, um das Erinnerungsvermögen an die erlernte Vermeidereaktion zu prüfen. Das Kriterium besteht in der Bestimmung, ob die Maus während mindestens 60 sec auf der Plattform verbleibt (Ja-Antwort) oder nicht (Nein-Antwort).
Etwa 75 % der Tiere, welche ausschließlich mit 0,5 % Tylose behandelt wurden, verbleiben bei der abschließenden Prüfung länger als 60 sec auf der Plattform: ein Ergebnis, welches als Ausdruck des guten Erinnerungsvermögens an die erlernte Erfahrung gedeutet werden kann. Nach Gabe von Scopolamin und Tylose verbleiben durchschnittlich etwa 25 % der Tiere auf der Plattform; dies zeigt die erhebliche Beeinträchtigung des Erinnerungsvermögens nach Gabe von Scopolamin.

Compound | Behandelte Tiere Überlebende % (Mäuse (ChbI: NMRI); 10 mg/kg p.o.) | Behandelte Tiere Überlebende % (Mäuse (ChbI: NMRI); 30 mg/kg p.o.) | %der Tiere bei welcher die Scopol-amin-Wirkung anta-gonisiert wurde (Mäuse (ChbI:NMRI); Dosis 5 (unit not given)) | %der Tiere bei welcher die Scopol-amin-Wirkung anta-gonisiert wurde (Mäuse (ChbI:NMRI); Dosis 10 (unit not given)) | %der Tiere bei welcher die Scopol-amin-Wirkung anta-gonisiert wurde (Mäuse (ChbI:NMRI); Dosis 20 (unit not given)) | %der Tiere bei welcher die Scopol-amin-Wirkung anta-gonisiert wurde (Mäuse (ChbI:NMRI); Dosis 30 (unit not given)) | Behandelte Tiere Überlebende % (Mäuse (ChbI: NMRI); 50 mg/kg p.o.) | %der Tiere bei welcher die Scopol-amin-Wirkung anta-gonisiert wurde (Mäuse (ChbI:NMRI); Dosis 1 (unit not given)) | %der Tiere bei welcher die Scopol-amin-Wirkung anta-gonisiert wurde (Mäuse (ChbI:NMRI); Dosis 0,5 (unit not given))
C[C@H](NC(=O)[C@H](Cc1ccccc1)SCOC(=O)C(C)(C)C)C(=O)N1CCC[C@H]1C(=O)OCOC(=O)C(C)(C)C [Verbindung 1, N-[N-(3-Phenyl-2-S-pivaloyloxymethylmercapto-propanoyl)-S-alanyl]-S-prolin-pivaloyloxymethylester] | 100% | 80% | 80% and 40% | 40% and 30% | 40% | 40% |  |  | 
C[C@H](NC(=O)[C@@H](S)Cc1ccccc1)C(=O)N1CCC[C@H]1C(=O)OCOC(=O)C(C)(C)C [Verbindung 4, N-[N-(3-Phenyl-2-S-mercaptopropanoyl)-S-alanyl]-S-prolin-pivaloyloxymethylester] | 90% | 30% |  |  |  |  | 70% and 100% |  | 
C[C@H](NC(=O)[C@H](Cc1ccccc1)SC(=O)c1ccccc1)C(=O)N1CCC[C@H]1C(=O)O [Verbindung 2, N-[N-(3-Phenyl-2-S-benzoylmercaptopropanoyl)-S-alanyl]-S-prolin] |  | 60% | 50% | 50% and 30% |  |  |  | 30% | 
CC(=O)S[C@@H](Cc1ccccc1)C(=O)N[C@@H](C)C(=O)N1CCC[C@H]1C(=O)OCOC(=O)C(C)(C)C [Verbindung 3, N-[N-(3-Phenyl-2-S-acetylmercaptopropanoyl)-S-alanyl]-S-prolin-pivaloyloxymethylester] | 50% | 30% | 40% | 40% and 80% |  |  | 80% and 100% | 60% | 40%
